Consider seven substances from patent US8178506B2, “Oligomeric compounds and compositions for use in modulation of small non-coding RNAs” (Regulus Therapeutics Inc., priority 2003, dated 2012).

In the oligonucleotide strings, read from the 5' end, every base follows the letter of its sugar. An asterisk marks phosphorothioate; unmarked linkages are phosphodiester. Other units and linkages are bracketed, terminal groups are in braces. A string of capitals states the bases alone. e = 2'-O-(2-methoxyethyl) (MOE); [5mC] = 5-methylcytosine; d = 2'-deoxy (DNA)

The first series concerns DIO mice. The series can be described thus: Diet-induced obesity (DIO) mice. Type of series: in vivo. To be noted: 25 mg/kg s.c. twice weekly, 25 mg/kg. As to the method:
As described, supra, the C57BL/6 mouse strain is reported to be susceptible to hyperlipidemia-induced atherosclerotic plaque formation, and when these mice are fed a high-fat diet, they develop diet-induced obesity (DIO). Accordingly, the DIO mouse model is useful for the investigation of obesity and development of agents designed to treat these conditions. In one embodiment of the present invention, oligomeric compounds targeting miRNAs were tested in the DIO model. Normal C57/BL6 male mice were fed a high fat diet (40% fat, 41% carbohydrate, 18% protein) for 12 weeks before the study began. DIO mice were then randomized by weight and insulin values. Initial body fat composition was determined by Dual X-ray Absorptiometry (DEXA) Scan. DIO mice were then subcutaneously injected with oligomeric compounds of the invention at a dose of 25 mg/kg, twice weekly. DIO mice were treated with oligomeric compounds ISIS Numbers 327901 and 340927 targeting mir-143, ISIS Numbers 327892 and 340926 targeting mir-131/mir-9, ISIS Numbers 327878 and ISIS Number 345349 targeting mir-203, and ISIS Numbers 327889 and 340925, targeting mir-23b. […] DEXA scans were also performed at weeks 0, 3 and 5 after treatment with the oligomeric compounds to assess the fat mass to lean mass ratio. The effects of target inhibition on levels of plasma glucose and insulin, liver transaminases, cholesterol and triglycerides, were also assessed weekly by tail bleed, and after the treatment period, mice were sacrificed and liver and kidney heart, as well as white adipose tissue (WAT) tissues collected. The mRNA expression levels of the Glut4, aP2, HSL and PPARγ marker genes are also assessed. […] Furthermore, some improvement in body composition (a reduction in body weight and fat mass) was observed.
Turning to “ACTTTCGGTTATCTAGCTTTA [ISIS 327892] (chemistry not given here) [uniform 2′-MOE PS; targets mir-131-2/mir-9]”, the “liver toxicity (plasma transaminase levels, weekly)” value (shortened to “liver toxicity”) is “did not appear to cause liver toxicity”.

Take “TGAGCTACAGTGCTTCATCTCA [ISIS 340927] (chemistry not given here) [5-10-7 2′-MOE gapmer PS; targets mature mir-143]”: the “liver toxicity” value is reported as “did not cause significant increases in liver toxicity”.

Regarding “TGAGCTACAGTGCTTCATCTCA [ISIS 327901] (chemistry not given here) [uniform 2′-MOE PS; targets mir-143]”, the “liver toxicity” value is reported as “did not appear to cause liver toxicity”.

The same series, now with this note: two and four week time points, vs saline.
For “TGAGCTACAGTGCTTCATCTCA [ISIS 340927] (chemistry not given here) [5-10-7 2′-MOE gapmer PS; targets mature mir-143]”, the insulin levels entry is “effective at reducing insulin levels”.

The next series concerns B16-F10 cells. Nature of the series: Cell cycle assay in B16-F10 cells. The following applies: 150 nM, 48 hours, relative to untreated control. The series is classed as cell-based, mouse. As to the method: BJ cells were routinely cultured in MEM high glucose with 2 mM L-glutamine and Earle's BSS adjusted to contain 1.5 g/L sodium bicarbonate and supplemented with 10% fetal bovine serum, 0.1 mM non-essential amino acids and 1.0 mM sodium pyruvate (all media and supplements from Invitrogen Life Technologies, Carlsbad, Calif.). B16-F10 cells were routinely cultured in DMEM high glucose (Invitrogen Life Technologies, Carlsbad, Calif.) supplemented with 10% fetal bovine serum (Invitrogen Life Technologies, Carlsbad, Calif.). T47D cells were cultured in DMEM High glucose media (Invitrogen Life Technologies, Carlsbad, Calif.) supplemented with 10% fetal bovine serum. […] Cells were plated on collagen-coated 24-well plates (Falcon-Primaria #3047, BD Biosciences, Bedford, Mass.) at approximately 50,000 cells per well and allowed to attach to wells overnight.
In further studies, additional cell lines were treated with oligomeric compounds targeted against miRNAs to assess the effects of each oligomeric compound on cell cycling. BJ, B16, T47D, and HeLa cells were cultured and transfected as described above. […] T47Dp53 cells are T47D cells that have been transfected with and selected for maintenance of a plasmid that expresses a wildtype copy of the p53 gene (for example, pCMV-p53; Clontech, Palo Alto, Calif.), using standard laboratory procedures. BJ cells were treated with 200 nM of each oligomeric compound, and T47D, T47Dp53, HeLa, and B16 cells were treated with 150 nM of each oligomeric compound. The human foreskin fibroblast BJ cell line represents a non-cancer cell line, while HeLa, T47D, T47Dp53 cells and the mouse melanoma cell line B16-F10 represent cancerous cell lines. For comparison, oligomeric compounds ISIS 183891 (SEQ ID NO: 847) and ISIS 285717 ([…]; herein incorporated as SEQ ID NO: 857), both targeting the kinesin-like 1/Eg5 mRNA, involved in cell cycling, were used as positive controls. The random-mer ISIS 29848 was used as a negative control. Additionally, the oligomeric compounds ISIS Number 25690 ([…]; herein incorporated as SEQ ID NO: 858) and ISIS Number 25691 ([…]; herein incorporated as SEQ ID NO: 859), targeted to nucleotides 3051-3070 and 3085-3104, respectively, of the mRNA encoding the Drosha RNase III (GenBank Accession NM_013235.2, incorporated herein as SEQ ID NO: 860) were also tested. ISIS Number 25690 and ISIS Number 25691 are 5-10-52′-MOE gapmer compounds, 20 nucleotides in length, with phosphorothioate internucleoside linkages throughout the oligomeric compound. All cytidine residues are 5-methylcytidines. Transfections were performed using the methods described herein. Cells were prepared for flow cytometry 48-hours after oligonucleotide treatment. Results of these studies are shown in Table 35, where data are expressed as percentage of cells in each phase relative to the untreated control cells in that phase.
For “327933 (antisense eA*eA*eG*eG*eG*eA*eT*eT*e[5mC]*e[5mC]*eT*eG*eG*eG*eA*eA*eA*eA*e[5mC]*eT*eG*eG*eA*e[5mC]) [compound 327933]”, the “% cells in cell cycle phase G1” value was 109%, the “% cells in cell cycle phase G2/M” value is given as 116%, the “% cells in cell cycle phase S” value is on record as 84% and the “% cells in cell cycle phase aneuploid” value is 130%. Further, the “% cells in cell cycle phase subG1” value is 104%.

Turning to “327902 (antisense eG*eG*e[5mC]*eT*eG*eT*e[5mC]*eA*eA*eT*eT*e[5mC]*eA*eT*eA*eG*eG*eT*e[5mC]*eA*eG) [compound 327902]”, the “% cells in cell cycle phase G1” value was 112%, the “% cells in cell cycle phase G2/M” value came out at 98%, the “% cells in cell cycle phase S” value came out at 88% and the “% cells in cell cycle phase aneuploid” value is reported as 101%. For the same substance, the “% cells in cell cycle phase subG1” value came out at 151%.

For the substance “327905 (antisense e[5mC]*eA*eG*eA*e[5mC]*eT*e[5mC]*e[5mC]*eG*eG*eT*eG*eG*eA*eA*eT*eG*eA*eA*eG*eG*eA) [compound 327905]”, the “% cells in cell cycle phase G1” value amounted to 107%, the “% cells in cell cycle phase G2/M” value is 106%, the “% cells in cell cycle phase S” value was 89% and the “% cells in cell cycle phase aneuploid” value was determined as 94%. The “% cells in cell cycle phase subG1” value is given as 142%.

On to “328759 (antisense eG*eA*eG*eG*eG*dA*dT*dT*dG*dT*dA*dT*dG*dA*dA*e[5mC]*eA*eT*e[5mC]*eT) [compound 328759]”, for which the “% cells in cell cycle phase G1” value was 104%, the “% cells in cell cycle phase G2/M” value stood at 110%, the “% cells in cell cycle phase S” value is given as 91% and the “% cells in cell cycle phase aneuploid” value is on record as 126%. The “% cells in cell cycle phase subG1” value is given as 132%.
